Results on 15 compounds are retold here after PubChem BioAssay (NCI).

Test systems include HCT-15 colon; HCT-116 colon; HOP-92 NSCLC; UACC-257 melanoma; BT-549 breast; SF-295 CNS; UACC-62 melanoma; SW-620 colon; A549 NSCLC; A498 renal.
Test in all cases: inhibition of tumour cell growth, NCI panel, 48 h

The structures appear in SMILES notation.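 Tested at 5 concentrations; 48 h exposure; 96-well plates; endpoints linearly interpolated, else capped at highest concentration. TGI: total growth inhibition.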

As to `NC(=O)c1ccc[n+](C2=C([O-])c3ccccc3C(=O)/C2=N\S(=O)(=O)c2ccccc2)c1`, the TGI worked out at 95.9 µM in the assay on HCT-15 colon; 32.4 µM in the assay on HCT-116 colon; 26.5 µM in the assay on HOP-92 NSCLC; 27.7 µM in the assay with UACC-257 melanoma; 28.8 µM in the assay on BT-549 breast; 31.5 µM in the assay with SF-295 CNS. Also, the TGI in the assay on UACC-62 melanoma worked out at 32.1 µM; with SW-620 colon it was 30.7 µM; in the assay on A549 NSCLC, 37.7 µM.

For `CCC1(CC)C(=O)N(C(=O)c2cc(OC)c(OC)c(OC)c2)N(C(=O)c2cc(OC)c(OC)c(OC)c2)C1=O`, the TGI in the assay on HCT-15 colon, in the assay on HCT-116 colon, in the assay with UACC-257 melanoma, in the assay with A498 renal, in the assay with BT-549 breast and with SF-295 CNS was more than 50 µM in each case. For the same compound, the TGI in the assay on UACC-62 melanoma, in the assay with SW-620 colon and in the assay with A549 NSCLC was more than 50 µM in each case.

With `Nc1c(N2CCOCC2)c(=O)nc2[nH]/c(=C\c3ccccc3O)c(=O)n12`, the TGI with HCT-15 colon, in the assay with HCT-116 colon, with HOP-92 NSCLC, with UACC-257 melanoma, in the assay on A498 renal and with SF-295 CNS was more than 100 µM each time. In addition, the TGI in the assay with SW-620 colon and in the assay on A549 NSCLC was more than 100 µM each time.

For `CCCCNC(=O)Cn1c2ccc(Br)cc2c2nc3ccccc3nc21`, the TGI with HCT-116 colon, in the assay on HOP-92 NSCLC, in the assay with UACC-257 melanoma, with A498 renal, with SF-295 CNS and in the assay on UACC-62 melanoma was more than 100 µM in each case. For the same compound, the TGI with SW-620 colon and with A549 NSCLC was more than 100 µM each time.

On to `NCCCCNCCCN1CCOC1=O`, for which the TGI in the assay on HCT-15 colon, with HCT-116 colon, in the assay with UACC-257 melanoma, in the assay on A498 renal, in the assay on BT-549 breast and with SF-295 CNS was more than 100 µM in each case. For the same compound, the TGI in the assay with UACC-62 melanoma, with SW-620 colon and in the assay with A549 NSCLC was more than 100 µM in each case.

With `COc1cc(N=Nc2ccc(OC)c(S(=O)(=O)O)c2)c(C)cc1N=Nc1ccc(/C=C/c2ccc(N=[N+]([O-])c3ccc(/C=C/c4ccc(N=Nc5cc(C)c(N=Nc6ccc(OC)c(S(=O)(=O)O)c6)cc5OC)cc4S(=O)(=O)O)c(S(=O)(=O)O)c3)cc2S(=O)(=O)O)c(S(=O)(=O)O)c1`, the TGI in the assay on HCT-15 colon, in the assay on HCT-116 colon, in the assay with HOP-92 NSCLC, with UACC-257 melanoma, in the assay with A498 renal and in the assay on SF-295 CNS was more than 100 µM throughout. For the same compound, the TGI in the assay with UACC-62 melanoma, with SW-620 colon and in the assay with A549 NSCLC was more than 100 µM each time.

With `O=C1CSC(c2c[nH]c3ccccc23)N1c1ccc(Cl)cc1Cl` (stereo not drawn), the TGI in the assay on HCT-15 colon, in the assay with HCT-116 colon, in the assay on HOP-92 NSCLC, with UACC-257 melanoma, in the assay on BT-549 breast and in the assay with SF-295 CNS was more than 100 µM each time. The TGI in the assay with UACC-62 melanoma, in the assay with SW-620 colon and in the assay with A549 NSCLC was more than 100 µM throughout.

Regarding `CN1C2=Nc3n(c4ccccc4[n+]3C)CN2c2ccccc21`, the TGI was more than 100 µM with HCT-15 colon; more than 100 µM with HCT-116 colon; 81.1 µM with HOP-92 NSCLC; more than 100 µM with UACC-257 melanoma; more than 100 µM with BT-549 breast; more than 100 µM in the assay on SF-295 CNS. The results for the TGI in the assay with UACC-62 melanoma, in the assay on SW-620 colon and in the assay with A549 NSCLC were 42.6 µM, more than 100 µM and more than 100 µM, respectively.

On to `CCCn1cc2c3c(cccc31)C1C=C(C)CN(C)C1C2` (stereo not drawn), for which the TGI with HCT-15 colon is 49 µM; in the assay on HCT-116 colon, 38.5 µM; in the assay on HOP-92 NSCLC it was 37.9 µM; in the assay on UACC-257 melanoma, 29.6 µM; in the assay on A498 renal, 37.8 µM; in the assay with SF-295 CNS, 55.2 µM. Besides, the TGI with UACC-62 melanoma is 55.7 µM; in the assay on SW-620 colon, 62.4 µM; with A549 NSCLC, 70.5 µM.

With `C=C(C)[C@H]1CC23C(=O)[C@@](C)(C[C@H]2C1(C)C)C(=O)C(C(=O)C(C)C)=C3O`, the TGI was 33.1 µM in the assay on HCT-15 colon; 62.3 µM in the assay with UACC-257 melanoma; 37.7 µM in the assay with BT-549 breast; 36.7 µM with SF-295 CNS; 29.8 µM with UACC-62 melanoma; 34.5 µM with SW-620 colon. This compound also had a TGI with A549 NSCLC of 57.9 µM.

Regarding `CN(C)/N=N/c1nc2c(c(=O)n(C)c(=O)n2C)n1CC1CO1` (stereo not drawn), the TGI with HCT-15 colon turned out to be 29.1 µM; in the assay with HCT-116 colon, 24 µM; with UACC-257 melanoma it was 43.9 µM; in the assay on BT-549 breast it was 52.7 µM; in the assay on SF-295 CNS it was 56.9 µM; in the assay with UACC-62 melanoma, 24.8 µM. Also, the results for the TGI with SW-620 colon and in the assay with A549 NSCLC were 36.8 µM and 69.4 µM, respectively.

As for `O=C(NC(C(F)(F)F)(C(F)(F)F)P(=O)(Cc1ccccc1)Cc1ccccc1)C(C(F)(F)F)C(F)(F)F`, the TGI in the assay with HCT-15 colon was more than 100 µM; with HCT-116 colon it was 33.1 µM; in the assay on UACC-257 melanoma, 46.5 µM; in the assay on A498 renal, 32.3 µM; in the assay with SF-295 CNS, 44.6 µM; in the assay on UACC-62 melanoma, 62.4 µM. For the same compound, the TGI with SW-620 colon came out at 92.7 µM; in the assay on A549 NSCLC, 68.3 µM.

`O=C1CC[C@@]23CC(=O)O[C@@H]2CCCC3C1` (stereo partly drawn): the TGI in the assay on HCT-15 colon, with HCT-116 colon, with UACC-257 melanoma, with BT-549 breast, with SF-295 CNS and in the assay with UACC-62 melanoma was more than 100 µM throughout. The TGI in the assay with SW-620 colon and in the assay on A549 NSCLC was more than 100 µM throughout.

In the case of `c1cncc(CSc2nc3ccccc3nc2-c2cccs2)c1`, the TGI in the assay on HCT-15 colon, in the assay with HCT-116 colon, with UACC-257 melanoma, with SF-295 CNS, with SW-620 colon and in the assay on A549 NSCLC was more than 100 µM in each case.

`O=C(c1ccco1)N(C(=O)N1CCC(c2ccccc2)CC1)c1ccccc1`: the TGI in the assay with HCT-15 colon, in the assay with HCT-116 colon, in the assay on UACC-257 melanoma, in the assay on A498 renal, in the assay on BT-549 breast and in the assay on UACC-62 melanoma was more than 100 µM in each case. This compound displayed a TGI in the assay on SW-620 colon of more than 100 µM.
